The results in this text go back to patent publication US20050048603A1 (priority 2001, published 2005).

Data set [1] has as its target mycoAC (adenylyl cyclase Rv1625c) (Mycobacterium tuberculosis, UniProt P9WQ35). The class given is biochemical.

Take Mn-GTP: in data set [1], the “acceptance as a substrate” value is reported as “not accepted as a substrate”.

B1: mycoAC holoenzyme expressed in E. coli (N-terminal His6-tag) (protein)
chain: MRGSHHHHHHGSMAARKCGAPPIAADGSTRRPDCVTAVRTQARAPTQHYAESVARRQRVLTITAWLAVVVTGSFALMQLATGAGGWYIALINVFTAVTFAIVPLLHRFGGLVAPLTFIGTAYVAIFAIGWDVGTDAGAQFFFLVAAALVVLLVGIEHTALAVGLAAVAAGLVIALEFLVPPDTGLQPPWAMSVSFVLTTVSACGVAVATVWFALRDTARAEAVMEAEHDRSEALLANMLPASIAERLKEPERNIIADKYDEASVLFADIVGFTERASSTAPADLVRFLDRLYSAFDELVDQHGLEKIKVSGDSYMVVSGVPRPRPDHTQALADFALDMTNVAAQLKDPRGNPVPLRVGLATGPVVAGVVGSRRFFYDVWGDAVNVASRMESTDSVGQIQVPDEVYERLKDDFVLRERGHINVKGKGVMRTWYLIGRKVAADPGEVRGAEPRTAGV
As for B1, the “AC activity of the bacterial membrane preparation” value with P9WQ35 was 19 nmol cAMP/mg·min^-1.
